Measurements reported in patent US20090264421A1 (priority 2007, published 2009).

Legend:
[1] = system: patient CD138+ myeloma cells and CD138- bone marrow cells; assay type: cell-based, human; conditions: 10 μM for 20 minutes, corrected for average cell volumes, 4 patients
Protocol: FIG. 7. Chaetocin induces oxidative stress in A549 cells without appreciable depletion of intracellular reduced glutathione levels, while the selective cytotoxicity of chaetocin in freshly collected myeloma cells appears to be attributable to their increased sensitivity to oxidative stressors. […] Chaetocin-induced increased oxidative species are attenuated by co-treatment with 10 mM NAC (C). D. Summary of results from FACS indicating changes of oxidative species induced in response to various treatments. Results shown are representative of three independent FACS experiments as described in the text; *p<0.05, **p<0.01. E. Effects of chaetocin or hydrogen peroxide (in comparison to diluent) on ROS (superoxide) levels in U266 myeloma cells as assessed using FACS analyses and hydroethidium as an ROS-sensitive FACS probe. Error bars indicate one sample standard deviation, results replicated in triplicate; ***p<0.001. […] Glutathione levels were assessed by spectrophotometric assay as described below. […] Cells were treated with 10 μM chaetocin for 20 minutes prior to assay, and calculated intracellular chaetocin levels were measured by HPLC with adjusted for differences in average cell volume (calculated from measured cell radii ascertained via light microscopy). […]

[2] = system: freshly collected sorted patient CD138+ myeloma cells; conditions: ex vivo, 24 hours, trypan blue exclusion
Protocol: FIG. 3. […] Survival indicated in A-E was assessed using a trypan blue exclusion assay, counting viable cells using a hemocytometer after 24 hour exposure to the indicated drugs and drug concentrations.
Patient bone marrow leukocytes were divided into myeloma (CD138+) and non-myeloma/normal leukocyte (CD138−) fractions employing sorting using magnetic bead technology in kit form (MACS CD138 microbeads, Miltenyi Biotech, Auburn, Calif.). Sorted cells were plated in a 96-well tissue culture plate at a concentration of 5×10^5 cells and dosed with indicated drug concentrations for 24 hours. Survival was assessed using a trypan blue exclusion assay.

U266 myeloma cells = assay: ROS (superoxide) by FACS with hydroethidium in U266 cells; assay type: cell-based, human; conditions: 200 nM, p<0.001
Protocol: FIG. 7. […] A549 cells were exposed to the indicated concentration of chaetocin for 24 hours, with addition of glutathione or diluent 30 minutes prior to chaetocin addition. Glutathione levels were assessed by spectrophotometric assay as described below. […] Cells were treated with 10 μM chaetocin for 20 minutes prior to assay, and calculated intracellular chaetocin levels were measured by HPLC with adjusted for differences in average cell volume (calculated from measured cell radii ascertained via light microscopy). Shaded area represents 1 standard deviation confidence interval, with central bar reflecting the mean relative intracellular chaetocin level. […] Cells from 4 myeloma patients were exposed to 200 μM hydrogen peroxide for 24 hours prior to assay, with trypan blue exclusion used to assess surviving cells.
Assessment of cellular oxidative stress: Cellular oxidative stress was assessed utilizing 5,6-chloromethyl-2′,7′-dichlorodihydrofluorescein diacetate or hydroethidium (Molecular Probes/Invitrogen, Carlsbad, Calif.) as cell permeable fluorescent probes and FACS analyses.

thioredoxin reductase = biological target: T1, thioredoxin reductase (Rattus norvegicus, UniProt O89049); assay: Thioredoxin reductase activity assay (gel-based oxidation state of thioredoxin method); assay type: biochemical
T1 construct: rat liver thioredoxin reductase; purchased Sigma (St. Louis, Mo.); host or cells: rat liver
T1 sequence (O89049 1-499): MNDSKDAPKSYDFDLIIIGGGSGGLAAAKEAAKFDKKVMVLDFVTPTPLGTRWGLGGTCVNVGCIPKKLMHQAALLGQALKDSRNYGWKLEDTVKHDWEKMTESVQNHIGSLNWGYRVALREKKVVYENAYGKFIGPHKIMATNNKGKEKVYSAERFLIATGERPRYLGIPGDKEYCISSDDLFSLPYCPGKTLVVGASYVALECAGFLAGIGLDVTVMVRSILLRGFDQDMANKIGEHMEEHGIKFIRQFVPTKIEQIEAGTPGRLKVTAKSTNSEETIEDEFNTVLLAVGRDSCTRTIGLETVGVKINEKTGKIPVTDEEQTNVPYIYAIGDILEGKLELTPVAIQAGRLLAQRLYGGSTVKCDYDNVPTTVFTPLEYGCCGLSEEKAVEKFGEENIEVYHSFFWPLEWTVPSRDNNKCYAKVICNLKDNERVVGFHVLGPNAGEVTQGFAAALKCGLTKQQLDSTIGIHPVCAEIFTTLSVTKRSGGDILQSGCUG
Protocol: HeLa cells were obtained from ATCC.
Thioredoxin Reductase Activity Assay (gel-based oxidation state of thioredoxin method): Reduction of thioredoxin by thioredoxin reductase was measured by the decrease in electrophoretic mobility caused by covalent modification of thioredoxin (by AMS) when the disulfide is reduced. […] At the indicated time, a 5 μL sample was removed and immediately added to 5 μL of 30 mM AMS in TE buffer (pH 7.5). The AMS was allowed to react (15 minutes at 22° C.) with reduced thioredoxin sulfhydryl groups, then the samples were mixed with non-reducing sample buffer and were electrophoresed on 18% Tris-HCl SDS-PAGE gels. The gels were stained with Coomassie blue and bands were imaged and quantitated using a Syngene InGenius gel documentation system (Frederick, Md.).

normal plasma cells = assay: Survival of normal plasma cells and matched normal leucocytes, trypan blue exclusion; assay type: cell-based, human; conditions: 24 h exposure
Protocol: A and B. Effects of chaetocin on survival of MGUS plasma cells and matched patient normal leucocytes from two patients (assessed by trypan blue exclusion assay, 24 h chaetocin exposures). C and D. Effects of chaetocin on survival of normal plasma cells and matched patient normal leucocytes from two patients (assessed by trypan blue exclusion assay, 24 h chaetocin exposures).

For `CN1C(=O)[C@@]23C[C@]4([C@]56C[C@@]78SS[C@@](CO)(C(=O)N7[C@H]5Nc5ccccc56)N(C)C8=O)c5ccccc5N[C@@H]4N2C(=O)[C@]1(CO)SS3` [chaetocin], the “intracellular accumulation in CD138- leukocytes versus CD138+ myeloma cells” value [1] was “no indication of lessened intracellular accumulation”, the “effect on matched CD138- normal bone marrow leukocytes” value [2] was “largely sparing” and the “peak shift (ROS, hydroethidium) relative to stained, untreated cells” value (U266 myeloma cells) was 43.26+3.67. The “inhibition of reduction of thioredoxin by thioredoxin reductase” value (thioredoxin reductase; gel-based, AMS modification) was “inhibit the ability of TrxR1 to reduce Trx”, the IC50 (thioredoxin reductase; initial linear portion of the reaction, read-out: IC50, reduction of thioredoxin by thioredoxin reductase) was 4 µM and the “effect on granulocytes and other leukocytes” value (normal plasma cells) was “largely sparing granulocytes and other leukocytes”.
